# What was measured:
# [1] = Storage stability in 30 vol % aqueous ethanol (coloration, residual content); assay type: physicochemical; settings: 2 mM in 30 vol % aqueous ethanol, 40° C., light-tight, 6 months
# Experimental: Each of resveratrol 3-O-α-glucoside (produced in Production Example 1), resveratrol (Tokyo Chemical Industry Co., Ltd.), and resveratrol 4′-O-α-glucoside (produced in Production Example 1) was dissolved in a 30 vol % aqueous solution of ethanol to a concentration of 2 mM, and the solution was stored at 40° C. under light-tight conditions. The coloration of the solution after being stored for 6 months was visually observed. Further, absorbances at 430 nm of the solution before and after the storage were measured, and the residual amount of each of the components in the solution was analyzed using HPLC. HPLC was performed under the same conditions as those described in Production Example 1.
# IL-1β gene = assay: Reduction of inflammation through pretreatment: IL-1β gene expression, Poly I:C; assay type: cell-based; settings: normal human epidermal keratinocytes, pretreatment 0.001 wt % 24 hours, then Poly I:C 1 μg/mL 9 hours; control = 100%, comparative group 871
# Experimental: Normal human epidermal keratinocytes were seeded into 12-well culture plates at 5×10^4 cells per well. As the medium, EpiLife KG-2 medium (basal medium) supplemented with insulin, hEGF, hydrocortisone, anti-microbial agents, and BPE was used, and the cells were preincubated in 5% CO2 at 37° C. for 48 hours. Further, the cells were incubated for additional 24 hours in a medium obtained by removing hydrocortisone only from the basal medium (assay medium). Next, the medium was replaced with a sample medium obtained by supplementing the assay medium with resveratrol 3-O-α-glucoside to a concentration of 0.001 wt %, the cells were cultured in 5% CO2 at 37° C. for 24 hours, and the cultured cells were pretreated with resveratrol 3-O-α-glucoside. […] After the medium was removed and the cells were washed with PBS, total RNA was extracted from the cells, and the level of expression of the proinflammatory cytokine IL-1β gene was quantified by real time PCR. […]
# Taking as 100% the level of expression of the IL-1β gene for the control group, a relative ratio of the expression level of the IL-1β gene for each of the comparative group and the resveratrol 3-O-α-glucoside-supplemented group (IL-1β gene expression ratio, %) was calculated. […]
smiles,measurement,setting,value
"OC[C@H]1O[C@H](Oc2cc(O)cc(C=Cc3ccc(O)cc3)c2)[C@H](O)[C@@H](O)[C@@H]1O [Resveratrol 3-O-α-Glucoside, resveratrol 3-O-α-glucoside]",Coloration: Difference between Absorbances at 430 nm (Δ A 430) before and after Storage,[1],0.03
same,Coloration: Visual Observation,[1],colorless
same,Residual Content (%),[1]; HPLC,93%
same,IL-1β Gene Expression Ratio (%),IL-1β gene,697%

# Source: patent US10149809B2, “Skin aging inhibitor and concentrate of resveratrol 3-O-α-glucoside” (priority 2014, dated 2018)
